The text below walks through data of ChEMBL document CHEMBL1143466, “Conformationally constrained N1-arylsulfonyltryptamine derivatives as 5-HT6 receptor antagonists” (Bioorg Med Chem Lett, 2005).

The target of test [1] is T1, 5-hydroxytryptamine receptor 6 (Homo sapiens, UniProt P50406). As to the kind of experiment: Maximum effective concentration for cAMP production in HeLa cells expressing human 5-HT6 receptors. It counts as functional, cell-based. (In general: Changes in cAMP serve as a functional read-out for many G protein-coupled receptors.)
Test [2] concerns the target T1, 5-hydroxytryptamine receptor 6. As to the kind of experiment: Displacement of [3H]LSD from cloned human 5-hydroxytryptamine 6 receptor expressed in HeLa cells. It counts as cell-based. A general note: Loss of bound radioactivity is the signal in a displacement assay; it reports binding, not function.
The target is the same in test [3]. Put plainly: Effective concentration for cAMP production in HeLa cells expressing human 5-HT6 receptors. The test is classed as functional, cell-based.

T1 sequence (P50406 whole entry): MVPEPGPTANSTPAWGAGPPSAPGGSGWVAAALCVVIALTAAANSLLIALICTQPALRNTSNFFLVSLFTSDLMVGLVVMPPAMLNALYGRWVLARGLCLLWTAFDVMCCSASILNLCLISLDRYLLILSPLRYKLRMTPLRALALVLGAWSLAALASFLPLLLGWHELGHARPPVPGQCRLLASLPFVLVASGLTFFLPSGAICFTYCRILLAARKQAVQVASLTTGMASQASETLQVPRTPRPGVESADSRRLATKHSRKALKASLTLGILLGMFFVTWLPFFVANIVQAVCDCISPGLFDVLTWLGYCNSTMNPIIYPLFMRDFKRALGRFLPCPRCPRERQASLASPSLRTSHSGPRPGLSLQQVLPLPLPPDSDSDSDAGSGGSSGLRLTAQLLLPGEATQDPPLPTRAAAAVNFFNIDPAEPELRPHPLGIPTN

Turning to `O=S(=O)(c1cccc(F)c1)n1cc(C2=CCCNC2)c2ccccc21`, in test [1], the Emax was found to be 51.5%. In test [2], this compound came in with a Ki of 8.5 nM. This compound also yielded an EC50 in test [3] of 270 nM.

Consider `O=S(=O)(c1ccccc1)n1cc(C2=CCCNC2)c2ccccc21`, for which, in test [1], the Emax worked out at 41%. This compound also returned an inhibition constant Ki in test [2] of 4.6 nM. Further, in test [3], it took 159 nM to reach a half-maximal effect (EC50).

What is called Emax is the size of the effect at its maximum, as opposed to the concentration needed. Usually Ki stands for the equilibrium dissociation constant of an inhibitor or competing ligand from its target. Low readings indicate tighter binding, high ones weaker binding. The EC50 is the midpoint of the concentration-response curve.
